“And” between values parts separate entries of the source, which are not always exact repeats. Equal entries are not always repeated. Marks after values point to notes of the source that are not given here.
Experiments:
Format in all cases: in vivo
[1] = system: tobacco mosaic virus (TMV); assay: Induction of resistance to tobacco mosaic virus in tobacco (foliar spray); conditions: for Effectiveness Covered (% decline in TMV lesions vs UTC): covered leaf (systemic response); for Effectiveness Uncovered (% decline in TMV lesions vs UTC): uncovered leaf (local response)
Description: Peptides were tested for the induction of resistance to tobacco mosaic virus (TMV) in tobacco. Briefly, three tobacco plants at 6-8 weeks old were selected per group (samples and controls). The bottom-most leaf of the plant was covered and the plant was sprayed with a solution of water (untreated control—UTC), peptide, or Proact (positive control). The spray was applied until the leaves were fully wetted, indicated by liquid dripping from the leaves. The plants were then allowed to dry and the leaf covering was removed.
Three days post-treatment, the previously-covered leaf and a leaf on the opposite side of the plant were then lightly dusted with diatomaceous earth and 20 ul of a 1.7 μg/ml solution of purified tobacco mosaic virus was applied. The TMV solution was then spread across the leaf surface by lightly rubbing solution and the diatomaceous earth across the surface of the leaves. Two minutes after inoculation, the diatomaceous earth was rinsed off the leaves with water. 3 days after TMV inoculation, the leaves were scored based on the number of TMV lesions observed. The leaf was also scored for signs of the hypersensitive response, including yellowing and wilting of the affected leaves.
Effectiveness described in Table 5 refers to the % decline in TMV lesions on treated vs UTC plants. A reduction of TMV on covered leaves indicates a systemic immune response in the plant while reduction on uncovered leaves indicates a local response. Asterisks indicate that the P-value derived from a T-test was <0.05.

corn [2] = assay: Drought resistance in corn (foliar spray); conditions: for Dry Weight Increase / Fresh Weight Increase: corn, vs untreated control
Description: The effectiveness of peptide treatment in reducing drought stress was assessed in corn. 3.5 inch pots were filled with Sunshine #1 soil (SunGro Horticulture), fertilized with a 20-10-20 mixture. The soil was soaked and drained overnight. Seeds (either corn or soy, manually inspected to ensure uniform seed size) were planted at a depth of 1 inch for germination. Plants were grown in a greenhouse under 16 hour light days at >70° F. and 8 hour dark nights at >65° F. Prior to drought conditions, the plants were well-watered.
When the plants reached the V1 stage, plants were culled to achieve a uniform height (abnormally large and small plants were removed). Plants were then randomly assigned to control (spray without peptide) or treatment (spray with peptide) groups and heights were measured. Peptide was made up in a solution of 0.2 μg/ml or 2μg/ml in distilled water+0.01% Tween-20, and applied as a fine mist from a spray bottle until the solution drips from the leaves. After the peptide solutions were dried, the plants were again randomized in a randomized complete block design. Drought stress was initiated after the peptide treatment. This was caused by maintaining the water level at 25-50% of the maximum capacity for water (capacity was decided as the weight of the pot filled with saturated soil minus the weight of the filled pot prior to adding water).
(§1) The drought test phase ended after 2-3 weeks. At that time, the plant height was again measured and the growth rate was calculated as the difference between this and the previously-recorded height. The above-ground part portions of the plants were harvested and weighed to obtain fresh weight. The above-ground portion was also dried in an oven at 70° C. for 72 hours to obtain dry weight. All calculations were compared with matched untreated control plants.
The drought testing procedure was carried out in corn using a treatment of P12, P13-10, P13-11, P13-12, P13-14, P13-4, and P13-15 (SEQ ID NOs: 5, 16, 17, 18, 20, 10, and 21). Asterisks indicate statistical significance by P-value (*: P<0.1 and **: P<0.05)

soy [3] = assay: Drought resistance in seed-treated soy; conditions: soy seed treatment 0.9 μg/seed, vs mock
Description: The effectiveness of peptide treatment in reducing drought stress was assessed in soy using a seed treatment strategy. This strategy largely mirrors examples 3 and 4.
Seeds were first sieved using mesh screens to a uniform size (14-17 mesh). The seeds were then coated with a mixture of peptide and Unicoat™ seed coat polymer in a Hege 11 Liquid Seed Treater (Wintersteiger) according to manufacturer recommendations. […]
(§2) 3.5 inch pots were filled (approximately 0.2 L per pot) with Sunshine #1 mix (SunGro Horticulture), fertilized with 14-14-14 N,P,K Osmocote (Everris), and mixed for 20 minutes using a soil mixer M-5. Seeds were planted at a depth of 0.5 inch for germination. The pots were immediately irrigated by submergence then drained after about an hour. For each treatment group, 24 replicate seeds were planted. Plants were grown in a greenhouse under 16 hour light days at ˜75° F. and 8 hour dark nights at ˜65° F. Prior to drought conditions, the plants were well-watered.
(§3) Seven days after germination the heights of the plants were measured. This was determined as the distance between the soil surface and the shoot apical meristems (buds). The plants were randomized using a complete block design and subjected to a cyclic drought stress. Drought stress was imposed by withholding water for 3-4 days until the majority of plants were under medium to severe water stress. The severity of the stress was determined by the weight of the pot and visual determination of loss of turgor in the leaves (drooping). Once drought stress was attained, the pots were watered to full saturation. Full Saturation (100% pot capacity) is defined as the weight of the pot filled with water-saturated soil minus the weight of the filled pot prior to adding water. Drought stress was imposed for a total of 18 days.
At the end of the experiment (18 days after initiation of drought stress), the plant above the soil surface was then harvested for fresh and dry weights. Individual plants were cut near the soil surface and weighed immediately (fresh weight). The plants were then placed into labeled brown paper bags and dried in a 70° C. oven for 72 hours. A dry weight was then obtained. The following calculation was performed on the collected data: Fresh weight at harvest, and dry weight at harvest for the peptide-treated plants were expressed as a % change relative to the ‘mock’ treated plants.

soy [4] = assay: Drought resistance in soy (foliar spray); conditions: vs untreated control
Description: The effectiveness of peptide treatment in reducing drought stress was assessed in […]. 3.5 inch pots were filled with Sunshine #1 soil (SunGro Horticulture), fertilized with a 20-10-20 mixture. The soil was soaked and drained overnight. Seeds (soy, manually inspected to ensure uniform seed size) were planted at a depth of half inch for germination. Plants were grown in a greenhouse under 16 hour light days at >70° F. and 8 hour dark nights at >65° F. Prior to drought conditions, the plants were well-watered.
When the plants reached the growth stage when first trifoliate expanded, plants were culled to achieve a uniform height (abnormally large and small plants were removed). Plants were then randomly assigned to control (spray without peptide) or treatment (spray with peptide) groups and heights were measured. Peptide was made up in a solution of 0.2 μg/ml or 2μg/ml in distilled water+0.04% Tween-20, and applied as a fine mist from a spray bottle until the solution drips from the leaves. After the peptide solutions were dried, the plants were again randomized in a randomized complete block design. Cyclic drought stress was initiated after the peptide treatment. Plants were subjected to at least three drought cycles of drought stress (3-5 days of withholding water and 1 day irrigated with saturating amount of water) before harvesting.
as §1
The drought testing procedure was carried out in soy using a treatment of P12-2, P13-4, P13-5, P13-7, P13-3, P13-14, P13-2, and P13-15 (SEQ ID NOs: 6, 10, 11, 13, 9, 20, 8, and 21). Asterisks indicate statistical significance by P-value (*: P<0.1 and **: P<0.05)

corn [5] = assay: Drought resistance in seed-coated corn; conditions: for Drought tolerance activity in corn, result in words: corn seed treatment; for % Change Dry Weight / % Change Fresh Weight: vs mock
Description: The effectiveness of peptide treatment in reducing the effects of drought stress was assessed in corn using a seed treatment strategy. This strategy largely mirrors example 2, except that the seeds were coated with a peptide formulation rather than a foliar spray application.
Seeds were first sieved using mesh screens to a uniform size (21-23/64 inches). The seeds were then coated with a mixture of peptide, Unicoat™ seed coat polymer, and a minimal volume of water in a Hege 11 Liquid Seed Treater (Wintersteiger) according to manufacturer recommendations. Seeds were coated with one of the following: (i) 0.12 μg peptide/seed, (ii) […], or (iii) a ‘mock’ treatment that included no peptide. The amount of peptide per seed assumes complete transfer of the peptide to seed surfaces in the seed coating chamber. Losses during coating were not considered.
as §2
as §3, with “Three” for “Seven”, “planting,” for “germination”, “the” for “the heights of the plants were measured. This was determined as the distance between the soil surface and the shoot apical meristems (buds). The”, “2-3” for “3-4”, “leaf curling.” for “loss of turgor in the leaves (drooping).”
At the end of the experiment (18 days after initiation of drought stress), the plant was then harvested for fresh and dry weights. Individual plants were cut near the soil surface and weighed immediately (fresh weight). The plants were then placed into labeled brown paper bags and dried in a 70° C. oven for 72 hours. A dry weight was then obtained.
The following calculation was performed on the collected data: Fresh weight at harvest and dry weight at harvest for the plants grown from peptide-treated seeds were expressed as a % change relative to the ‘mock’ treated plants.

[6] = corn seed treatment 0.12 μg/seed
[7] = corn seed treatment 1.05 μg/seed

AGQTSGMSPMEQLMKIFADITQSLFGDQDG (P13-12 peptide) [Peptide P13-12]
Effectiveness Covered (% decline in TMV lesions vs UTC) ([1]; 20 μg/ml spray): 37.9% | Effectiveness Uncovered (% decline in TMV lesions vs UTC) ([1]; 20 μg/ml spray): 44.1% | Drought tolerance activity in corn, result in words (corn [2]; corn foliar spray): affords activity | Dry Weight Increase (corn [2]; foliar spray 0.2 μg/ml): 7.31* % | Fresh Weight Increase (corn [2]; foliar spray 0.2 μg/ml): 3.93* % | % Change Dry Weight (soy [3]): −0.37% | % Change Fresh Weight (soy [3]): 0.77%

GDLQGSGASTQDTSGMSPMEQLMKIFADITQSLFGDQDG (P12-2 peptide) [Peptide P12-2]
Dry Weight Increase (soy [4]; foliar spray 2 μg/ml): 3.55% | Fresh Weight Increase (soy [4]; foliar spray 2 μg/ml): 7.83** %

GQTSGMSPMEQLMKIFADITQSLFG (P13-15 peptide) [Peptide P13-15]
Dry Weight Increase (corn [2]; foliar spray 0.2 μg/ml): 6.21% | Fresh Weight Increase (corn [2]; foliar spray 0.2 μg/ml): 2.92% | Dry Weight Increase (soy [4]; foliar spray 2 μg/ml): 2.07% | Fresh Weight Increase (soy [4]; foliar spray 2 μg/ml): 5.38* %

LEELEELLEIFEEIEEELFEE (P13-7 peptide) [Peptide P13-7]
Dry Weight Increase (soy [4]; foliar spray 2 μg/ml): 4.50* % | Fresh Weight Increase (soy [4]; foliar spray 2 μg/ml): 5.80* % | Drought tolerance activity in corn, result in words (corn [5]): preservation of activity | % Change Dry Weight (corn [5]; [6]): 4.77** % | % Change Fresh Weight (corn [5]; [6]): 5.6* %

LSPLEQLMKIFADITQSLFEEEE (P13-5 peptide) [Peptide P13-5]
Dry Weight Increase (soy [4]; foliar spray 0.2 μg/ml): 6.93** % | Fresh Weight Increase (soy [4]; foliar spray 0.2 μg/ml): 12.23** % | Dry Weight Increase (soy [4]; foliar spray 2 μg/ml): 4.36% | Fresh Weight Increase (soy [4]; foliar spray 2 μg/ml): 9.73** % | Drought tolerance activity in corn, result in words (corn [5]): supported corn drought tolerance | % Change Dry Weight (corn [5]; [7]): 5.07* % | % Change Fresh Weight (corn [5]; [7]): 5.66** %

MSPMEQLMKIFADITQSLFEEEE (P13-4 peptide) [Peptide P13-4]
Dry Weight Increase (corn [2]; foliar spray 2 μg/ml): 0.06% | Fresh Weight Increase (corn [2]; foliar spray 2 μg/ml): −2.77% | Dry Weight Increase (soy [4]; foliar spray 0.2 μg/ml): 4.45* % | Fresh Weight Increase (soy [4]; foliar spray 0.2 μg/ml): 7.75** %

QTGDDSLSGAGQTSGMSPMEQLMKIFADITQSLFG (P13-14 peptide) [Peptide P13-14]
Dry Weight Increase (corn [2]; foliar spray 2 μg/ml): 2.48% | Fresh Weight Increase (corn [2]; foliar spray 2 μg/ml): 4.36* % | Dry Weight Increase (soy [4]; foliar spray 0.2 μg/ml): −3.68** % | Fresh Weight Increase (soy [4]; foliar spray 0.2 μg/ml): −2.86% | % Change Dry Weight (corn [5]; [6]): 3.77% | % Change Fresh Weight (corn [5]; [6]): 9.11** % | % Change Dry Weight (corn [5]; [7]): 7.92** % | % Change Fresh Weight (corn [5]; [7]): 11.83** %

QTGDDSLSGAGQTSGMSPMEQLMKIFADITQSLFGDQ (P13-13 peptide) [Peptide P13-13]
Effectiveness Covered (% decline in TMV lesions vs UTC) ([1]; 20 μg/ml spray): 38.5% | Effectiveness Uncovered (% decline in TMV lesions vs UTC) ([1]; 20 μg/ml spray): 36.6%

QTGDDSLSGAGQTSGMSPMEQLMKIFADITQSLFGDQDG (P12 peptide) [Peptide P12]
Effectiveness Covered (% decline in TMV lesions vs UTC) ([1]; 10 μg/ml spray): 66* % | Effectiveness Uncovered (% decline in TMV lesions vs UTC) ([1]; 10 μg/ml spray): 53* % | Dry Weight Increase (corn [2]; foliar spray 2 μg/ml): 6.28** % | Fresh Weight Increase (corn [2]; foliar spray 2 μg/ml): 4.87* %

TSGLSPLEQLLKIFADITQSLFG (P13-2 peptide) [Peptide P13-2]
Dry Weight Increase (soy [4]; foliar spray 0.2 μg/ml): 8.70** % | Fresh Weight Increase (soy [4]; foliar spray 0.2 μg/ml): 7.84** % | Dry Weight Increase (soy [4]; foliar spray 2 μg/ml): 14.54** % | Fresh Weight Increase (soy [4]; foliar spray 2 μg/ml): 15.56** % | % Change Dry Weight (corn [5]; [7]): 0.38% | % Change Fresh Weight (corn [5]; [7]): 3.67%

TSGLSPLEQLLKIFAEITQSLFG (P13-3 peptide) [Peptide P13-3]
Dry Weight Increase (soy [4]; foliar spray 0.2 μg/ml): 8.47** % | Fresh Weight Increase (soy [4]; foliar spray 0.2 μg/ml): 11.43** % | Dry Weight Increase (soy [4]; foliar spray 2 μg/ml): 2.54% and 6.07** % | Fresh Weight Increase (soy [4]; foliar spray 2 μg/ml): 5.90** % and 13.61** % | % Change Dry Weight (corn [5]; [6]): 2.81% | % Change Fresh Weight (corn [5]; [6]): 1.49%
